Counter-ions that a name gives are not always drawn.
What was measured:
APOL1 G1 Protein = target: T1, APOL1 G1 Protein (Homo sapiens, UniProt O14791, I384M/S342G); experiment: Trypanosoma brucei brucei Lysis Assay Using APOL1 Recombinant Protein (AlamarBlue viability); assay type: cell-based; details: read-out: Trypanosomal Assay (IC50)
T1 sequence (O14791 28-398 S342G/I384M): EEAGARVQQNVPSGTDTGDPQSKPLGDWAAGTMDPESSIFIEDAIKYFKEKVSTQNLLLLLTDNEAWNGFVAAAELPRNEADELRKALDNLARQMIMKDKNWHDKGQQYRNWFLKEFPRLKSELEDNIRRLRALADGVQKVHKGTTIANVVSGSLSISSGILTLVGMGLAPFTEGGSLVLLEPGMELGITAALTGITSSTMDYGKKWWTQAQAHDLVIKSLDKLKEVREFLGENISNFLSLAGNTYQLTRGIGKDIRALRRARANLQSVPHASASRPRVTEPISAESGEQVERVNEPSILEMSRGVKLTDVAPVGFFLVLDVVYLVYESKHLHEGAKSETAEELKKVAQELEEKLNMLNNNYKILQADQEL
Excerpt: Trypanosoma brucei brucei is a blood stream parasite to which human, gorillas and baboon are immune due to the presence of the APOL1 protein in their HDL particles. The protein is uptaken by the parasite via the TbHpHb receptor located in its flagellar pocket and is bonded by the Hpr protein contained in the HDL particles which triggers the receptor endocytosis by the parasite.
Following endocytosis, the formed vesicle containing the HDL particle matures from early to late endosome, and subsequently to lysosome. The concomitant pH change in the lumen of the vesicle triggers the insertion of the APOL1 protein into the membrane of the late endosome/lysosome and hereby triggers lysosomal membrane permeabilization and as a further downstream event, trypanosome lysis. Trypanosoma brucei brucei is sensitive to lysis by all three APOL1 variants (G0, G1, and G2).
The Trypanosoma brucei brucei lysis assay is a lysis assay of the parasite using recombinant APOL1 protein variant followed by a fluorescent detection method of viability by the addition of AlamarBlue reagent to the assay well, a general metabolic redox indicator (AlamarBlue assay).
Briefly, the AlamarBlue active compound, the resazurin, a blue, water soluble, non-toxic and cell permeable molecule, which can be followed by absorbance, is reduced by various metabolic pathways into resorufin, a red compound which can be followed by either absorbance or fluorescence. The assay allows the calculation of the percent viability (percent of living Trypanosomes remaining in each well) at the end of a lysis relative to the untreated condition by interpolation of fluorescent values (FLU) on a standard curve with a known amount of seeded trypanosome/well.
Trypanosoma brucei brucei (ATCC, Cat. No. PRA-382) • Lister 427 VSG 221 bloodstream form.
Thaw/Expansion Media (ATCC Medium 2834 Modified HMI-9 Medium)
Assay Media (No Phenol Red/No FBS): Make on Day of Use
Hypoxanthine Stock (100×)-9 (10×)
Equipment • E1-Clip Tip pipette 12 channel adjustable 2-125 μL, Cat. No. 4672070BT • ThermoFisher MultiDrop 384, Cat. No. 5840300 • Multidrop • Agilent Bravo, Cat. No. G5409A • Bravo • SpectraMax M5
Trypanosoma brucei brucei Culture
Step 2, Day 4 • Centrifuge at 800×g for 5 minutes at room temperature. • Resuspend in 1 mL media. • Make a 1:25 fold dilution (10 μL/240 μL media). • Count on a hemocytometer (after adding parasites). • Let sit for 1-2 minutes for the parasites to settle. • Count should be approximately 100 viable motile parasites/16 grid or approximately 25×10^6 parasites/flask. • Passage the parasites by adding 1×10^6 parasites/T75 flask in 20 mL media. • Passage the parasites by adding 2.33×10^6 parasites/T175 flask in 46.6 mL media. • For every T75 flask should make enough for approximately 1.5×384 well assay plates. • For every T175 flask should make enough for approximately 3.8×384 well assay plates.
Step 3, Day 6 • Centrifuge at 800×g for 5 minutes. • Resuspend in 3 mL assay media (No phenol red, no FBS) per 75 starting flask. • Resuspend in 7 mL assay media (No phenol red, no FBS) per 175 flask • Make a 1:25 fold dilution. • Count by hemocytometer. • Every T75 flask set up should have approximately 75×10^6 parasites/flask (verify doubling time=8.7 hours±1 hour). • Every T175 flask set up should have approximately 175×10^6 parasites/flask (verify doubling time=8.7 hours±1 hour). • Require 46×10^6 parasites per 384 well plate (at 120,000 parasites per well). […]

G1 APOL1 = target: T2, G1 APOL1 (Homo sapiens, UniProt O14791, I384M/S342G); experiment: Acute APOL1 Thallium Assay with Inducible Stable Clones of HEK 293 Cells; assay type: cell-based; details: HEK 293 inducible stable clones, G1 APOL1; read-out: Thallium Assay (IC50)
T2 construct: expressed in transfected cells
T2 sequence (O14791 28-398 S342G/I384M): T1 sequence (O14791 28-398 S342G/I384M)
Method in brief: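 Pore activity was read as the fluorescence increase from Tl+ entering cells loaded with an AM-ester thallium indicator dye. The cells were tetracycline-inducible HEK293 T-Rex expressing G1 APOL1 (clone DC3.25), induced when plated at 26000 per well and incubated at 37° C.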

Row | Structure (SMILES) | IC50 (G1 APOL1) [nM] | IC50 (APOL1 G1 Protein) [nM]
1 | CC(CN)NC(=O)CCc1c(-c2ccc(F)cc2)[nH]c2ccc(F)cc12 (racemic) [Compound 5] | > 1000 | > 1000
2 | CC(NC(=O)CCc1c(-c2ccc(F)cc2)[nH]c2ccc(F)cc12)C(N)=O (racemic) [Compound 13] | 250 to 1000 | > 1000
3 | COCC(C)NC(=O)CCc1c(-c2ccc(F)cc2)[nH]c2ccc(F)cc12 (racemic) [Compound 30] | 250 to 1000 | 250 to 1000
4 | CC(C#N)(CO)NC(=O)CCc1c(-c2ccc(F)cc2)[nH]c2ccc(F)cc12 (racemic) [Compound 33] | > 1000 | > 1000
5 | CC1(O)CCN(C(=O)CCc2c(-c3ccc(F)cc3)[nH]c3ccc(F)cc23)C1 (racemic) [Compound 88] | > 1000 | > 1000
6 | CC1(NC(=O)CCc2c(-c3ccc(F)cc3)[nH]c3c(F)cc(F)cc23)CCOC1 (racemic) [Compound 152] | > 1000 | > 1000
7 | CC(O)C(=O)NCCCc1c(-c2ccc(F)cc2)[nH]c2ccc(F)cc12 (racemic) [Compound 507] | < 250 | 250 to 1000
8 | O=C(CCc1c(-c2ccc(F)cc2)[nH]c2ccc(F)cc12)N[C@H]1CNC[C@@H]1O [Compound 2, 3-[5-fluoro-2-(4-fluorophenyl)-1H-indol-3-yl]-N-[(3S,4S)-4-hydroxypyrrolidin-3-yl]propanamide hydrochloride] | > 1000 | > 1000
9 | Nc1ccnn1C(=O)CCc1c(-c2ccc(F)cc2)[nH]c2ccc(F)cc12 [Compound 6] | 250 to 1000 | 250 to 1000
10 | NC1CCC(NC(=O)CCc2c(-c3ccc(F)cc3)[nH]c3ccc(F)cc23)C1 (centres unmarked) [Compound 7] | > 1000 | > 1000
11 | C[C@H](CO)NC(=O)CCc1c(-c2ccc(F)cc2)[nH]c2ccc(F)cc12 [Compound 8] | < 250 | < 250
12 | O=C(CCc1c(-c2ccc(F)cc2)[nH]c2ccc(F)cc12)N[C@H]1CC[C@H]1O [Compound 14] | 250 to 1000 | 250 to 1000
13 | O=C(CCc1c(-c2ccc(F)cc2)[nH]c2ccc(F)cc12)N[C@@H]1CCC[C@@H]1O [Compound 15] | 250 to 1000 | 250 to 1000
14 | CC1(NC(=O)CCc2c(-c3ccc(F)cc3)[nH]c3ccc(F)cc23)COC1 [Compound 16] | > 1000 | 250 to 1000
15 | CC(C)(NC(=O)CCc1c(-c2ccc(F)cc2)[nH]c2ccc(F)cc12)C(N)=O [Compound 17] | 250 to 1000 | 250 to 1000
16 | O=C(CCc1c(-c2ccc(F)cc2)[nH]c2c(F)cc(F)cc12)N[C@H](CO)C(F)(F)F [Compound 128] |  | 250 to 1000
17 | CON(C)C(=O)CCc1c(-c2ccc(F)cc2)[nH]c2ccccc12 [Compound 237] |  | > 1000
18 | COC(=O)/C=C/c1c(-c2ccc(C#N)cc2)[nH]c2c(F)cc(F)cc12 [Compound 521, Methyl (E)-3-[2-(4-cyanophenyl)-5,7-difluoro-1H-indol-3-yl]prop-2-enoate] | > 1000 | 
19 | CC(C)(O)C#Cc1c(-c2ccc(F)cc2)[nH]c2c(F)cc(F)cc12 [Compound 523, 4-[5,7-difluoro-2-(4-fluorophenyl)-1H-indol-3-yl]-2-methyl-but-3-yn-2-ol] | > 1000 | 
20 | OC1(CC#Cc2c(-c3ccc(F)cc3)[nH]c3c(F)cc(F)cc23)COC1 [Compound 524, 3-[3-[5,7-difluoro-2-(4-fluorophenyl)-1H-indol-3-yl]prop-2-ynyl]oxetan-3-ol] | > 1000 | 
21 | OC1(CC#Cc2c(-c3ccc(F)cc3)[nH]c3c(F)cc(F)cc23)CCC1 [Compound 525, 1-[3-[5,7-difluoro-2-(4-fluorophenyl)-1H-indol-3-yl]prop-2-ynyl]cyclobutanol] | > 1000 | 

Now from value to compound, other results behind:

Row | IC50 (G1 APOL1) [nM] | Structure (SMILES) | IC50 (APOL1 G1 Protein) [nM]
22 | > 1000 | CC(O)C(C)NC(=O)CCc1c(-c2ccc(F)cc2)[nH]c2ccc(F)cc12 (mixture of isomers) [Compound 35] | > 1000
23 | > 1000 | CC1CC(NC(=O)CCc2c(-c3ccc(F)cc3)[nH]c3c(F)cc(F)cc23)C(=O)O1 (mixture of isomers) [Compound 189] | > 1000
24 | < 250 | CC(CO)NC(=O)CCc1c(-c2ccc(F)cc2)[nH]c2ccc(F)cc12 (racemic) [Compound 9] | < 250
25 | 250 to 1000 | CNC(=O)C(C)NC(=O)CCc1c(-c2ccc(F)cc2)[nH]c2ccc(F)cc12 (racemic) [Compound 11] | 250 to 1000
26 | 250 to 1000 | CCNC(=O)C(C)NC(=O)CCc1c(-c2ccc(F)cc2)[nH]c2ccc(F)cc12 (racemic) [Compound 12] | 250 to 1000
27 | > 1000 | CC(CNC(=O)OC(C)(C)C)NC(=O)CCc1c(-c2ccc(F)cc2)[nH]c2ccc(F)cc12 (racemic) [Compound 59] | > 1000
28 | > 1000 | CCC(C)(CO)NC(=O)CCc1c(-c2ccc(F)cc2)[nH]c2ccc(F)cc12 (racemic) [Compound 62] | > 1000
29 | > 1000 | CC1(N)CCN(C(=O)CCc2c(-c3ccc(F)cc3)[nH]c3ccc(F)cc23)C1 (racemic) [Compound 67] | > 1000
30 | 250 to 1000 | CNC(=O)C(C)NC(=O)CCc1c(-c2ccc(F)cc2)[nH]c2c(F)cc(F)cc12 (racemic) [Compound 100] | 250 to 1000
31 | > 1000 | CC1(NC(=O)CCc2c(-c3ccc(F)cc3)[nH]c3c(F)cc(F)cc23)CCOC1=O (racemic) [Compound 105] | 250 to 1000
32 | 250 to 1000 | CC(NC(=O)CCc1c(-c2ccc(F)cc2)[nH]c2c(F)cc(F)cc12)C(F)(F)F (racemic) [Compound 115] | 250 to 1000
33 | 250 to 1000 | CC(NC(=O)CCc1c(-c2ccc(F)cc2)[nH]c2c(F)cc(F)cc12)c1ccn(C)n1 (racemic) [Compound 133] | > 1000
34 | < 250 | O=C(CCc1c(-c2ccc(F)cc2)[nH]c2ccc(F)cc12)N[C@@H](CO)C(F)(F)F [Compound 1, 3-[5-fluoro-2-(4-fluorophenyl)-1H-indol-3-yl]-N-[(1S)-2,2,2-trifluoro-1-(hydroxymethyl)ethyl]propanamide] | < 250
35 | < 250 | O=C(CCc1c(-c2ccc(F)cc2)[nH]c2ccc(F)cc12)NC1(CO)CCC1 [Compound 4] | < 250
36 | > 1000 | N[C@H]1C[C@@H](NC(=O)CCc2c(-c3ccc(F)cc3)[nH]c3ccc(F)cc23)C1 [Compound 10] | > 1000
37 | > 1000 | O=C(/C=C/c1c(-c2ccc(F)cc2)[nH]c2c(F)ccc(F)c12)N[C@H]1CCNC1=O [Compound 520, (E)-3-[4,7-difluoro-2-(4-fluorophenyl)-1H-indol-3-yl]-N-[(3S)-2-oxopyrrolidin-3-yl]prop-2-enamide] | 
38 | > 1000 | N#Cc1ccc(-c2[nH]c3c(F)cc(F)cc3c2/C=C/C(=O)N[C@H]2CCNC2=O)cc1 [Compound 522, (E)-3-[2-(4-cyanophenyl)-5,7-difluoro-1H-indol-3-yl]-N-[(3S)-2-oxopyrrolidin-3-yl]prop-2-enamide] | 
